The values that follow come from patent US5696151A, “Compounds useful for the inhibition of the replication of HIV-1 and HIV-1 mutants” (priority 1995, dated 1997).

What all share (format): cell-based
One data set relates to HIV-1/181-Cys. The experiment in a line: Inhibition of HIV-1 induced syncytium formation in CEM cells, RT mutant 181-Cys. To be noted: Human immunodeficiency virus 1, CCRF-CEM, 96 h, Table 2B, day 4, averages of 2 to 3 independent experiments, read-out: Antiviral Activity of Comparative Compounds EC50, 181-Cys. The procedure, abridged:
(§1)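 Mutant strains were selected in culture for resistance to NNRTIs such as TSAO-m^3T, pyridinone L-697,661 or HEPT. Antiviral effect is inhibition of syncytium formation in infected CEM cells (~100 CCID50), assessed microscopically at day 4.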

For a further data set, the system named is HIV-1/106-Ala. Put plainly: Inhibition of HIV-1 induced syncytium formation in CEM cells, RT mutant 106-Ala. To be noted: Human immunodeficiency virus 1, CCRF-CEM, 96 h, Table 2B, day 4, averages of 2 to 3 independent experiments, read-out: Antiviral Activity of Comparative Compounds EC50, 106-Ala. The procedure, abridged:
as §1

The test system of another data set is HIV-1/188-Leu. The experiment in a line: Inhibition of HIV-1 induced syncytium formation in CEM cells, RT mutant 188-Leu. The note with it: Human immunodeficiency virus 1, CCRF-CEM, 96 h, Table 2B, day 4, averages of 2 to 3 independent experiments, read-out: Antiviral Activity of Comparative Compounds EC50, 188-Leu. From the text: (§2) CEM cells were obtained from the American Tissue Cell Culture Collection (Rockville, Md.). HIV-1(IIIB) was originally obtained from the culture supernatant of persistently HIV-1-infected H9 cells and was provided by R. C. Gallo and M. Popovic (National Cancer Institute, National Institutes of Health, Bethesda, Md.). […] 67: 5353-5359 (1993); HIV-1/Lys-138 ("Lys-138") was selected for resistance against TSAO-m^3T as described in Balzarini et al, Virology 192: 246-253 (1993) and Balzarini et al, Proc. Nat. Acad. Sci. USA 90: 6952-6956 (1993); HIV-1/181-Cys ("181-Cys") was selected for resistance against pyridinone L-697,661 as described in Balzarini et al, Virology 192: 246-253 (1993); and HIV-1/188-His ("188-His") was selected for resistance against HEPT as described in Balzarini et al, Mol. Pharmocol. 44: 694-701 (1993). 188-His was then further converted to HIV-1/188-Leu "188-Leu") upon further passage in cell culture in the absence of the HEPT.
(§3) CEM cells were suspended at ≈300,000 cells per ml of culture medium and infected with approximately 100 CCID50 (CCID50 being the 50% cell culture infective dose) of HIV-1(IIIB) or one of the HIV-1 RT mutant strains described above. Then 100 μl of the infected cell suspensions was added to 200 μl microtiter plate wells containing 100 μl of appropriate serial (5-fold) dilutions of the test compounds. The inhibitory effect of the test compounds on HIV-1 induced syncytium formation in CEM cells was examined microscopically on day 4 post infection.

The subject of another data set is HIV-1(IIIB). The experiment in a line: Inhibition of HIV-1 induced syncytium formation in CEM cells, wild type. To be noted: Human immunodeficiency virus 1, IIIB, CCRF-CEM, 96 h, Table 2B, WT = HIV-1(IIIB), day 4, averages of 2 to 3 independent experiments, read-out: Antiviral Activity of Comparative Compounds EC50, WT. In a few lines: as §1
The next data set is described as follows: in vitro. The note with it: human, cem cells, CC50 (50% cytostatic concentration), Table 2B; CEM cell proliferation; averages of 2 to 3 independent experiments. The procedure, abridged: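 Value is the 50% cytostatic concentration, the compound concentration that inhibits CEM cell proliferation by 50%. HIV-1(IIIB) and NNRTI-resistant variants selected in culture (Lys-138, 181-Cys, 188-His, 188-Leu) were used alongside.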

In a further data set the test system is HIV-1/103-Asn. The experiment in a line: Inhibition of HIV-1 induced syncytium formation in CEM cells, RT mutant 103-Asn. To be noted: Human immunodeficiency virus 1, CCRF-CEM, 96 h, Table 2B, day 4, averages of 2 to 3 independent experiments, read-out: Antiviral Activity of Comparative Compounds EC50, 103-Asn.
Description: as §2, §3

A further data set relates to HIV-1/Lys-138. The experiment in a line: Inhibition of HIV-1 induced syncytium formation in CEM cells, RT mutant 138-Lys. The note with it: Human immunodeficiency virus 1, CCRF-CEM, 96 h, Table 2B, day 4, averages of 2 to 3 independent experiments, read-out: Antiviral Activity of Comparative Compounds EC50, 138-Lys. In a few lines:
as §1

In another data set the test system is HIV-1/100-Ile. Put plainly: Inhibition of HIV-1 induced syncytium formation in CEM cells, RT mutant 100-Ile. The note with it: Human immunodeficiency virus 1, CCRF-CEM, 96 h, Table 2B, day 4, averages of 2 to 3 independent experiments, read-out: Antiviral Activity of Comparative Compounds EC50, 100-Ile. In a few lines: as §1

The structures appear in SMILES notation. ≈ marks a conversion by molar mass, not a printed value.

For the compound `C=C(Cl)COc1cc(NC(=S)c2ccsc2C)ccc1C#N` [Compound 25], the half-maximal effective concentration (EC50) (as a rule, the concentration that produces a half-maximal response) in the data set with HIV-1/181-Cys is 0.44 µg/mL (≈ 1.26 µM); with HIV-1/106-Ala, 0.2 µg/mL (≈ 0.573 µM); with HIV-1/188-Leu, more than 2 µg/mL; with HIV-1(IIIB), 0.03 µg/mL (≈ 0.086 µM); in the data set on HIV-1/103-Asn, 0.4 µg/mL (≈ 1.15 µM); in the data set on HIV-1/Lys-138, 0.13 µg/mL (≈ 0.373 µM). Also, the EC50 with HIV-1/100-Ile came to 0.2 µg/mL (≈ 0.573 µM). In addition, the half-maximal cytotoxic concentration (CC50) (as a rule, the concentration at which the toxic effect on the cells reaches its halfway point) in the data set “in vitro” came out at 3.3 µg/mL (≈ 9.46 µM).

As for `Cc1occc1C(=S)Nc1ccc(Cl)c(OC2CCCCC2)c1` [Compound 26], the EC50 in the data set on HIV-1/181-Cys is not below 2 µg/mL; in the data set on HIV-1/106-Ala, 0.09 µg/mL (≈ 0.257 µM); with HIV-1/188-Leu, more than 2 µg/mL; in the data set on HIV-1(IIIB), 0.033 µg/mL (≈ 0.0943 µM); in the data set with HIV-1/103-Asn, 0.33 µg/mL (≈ 0.943 µM); in the data set with HIV-1/Lys-138, 0.5 µg/mL (≈ 1.43 µM). Besides, the concentration for a half-maximal effect (EC50) in the data set on HIV-1/100-Ile came to 0.33 µg/mL (≈ 0.943 µM). In “in vitro”, this compound gave a cytotoxic concentration (CC50) of 5.3 µg/mL (≈ 15.1 µM).

As to `CC(C)=CCOc1cc(NC(=O)c2ccsc2C)ccc1Cl` [Compound 27], the concentration giving a half-maximal response (EC50) in the data set on HIV-1/181-Cys is 0.46 µg/mL (≈ 1.37 µM); in the data set with HIV-1/106-Ala, 0.11 µg/mL (≈ 0.328 µM); in the data set on HIV-1/188-Leu it was more than 2 µg/mL; in the data set on HIV-1(IIIB), 0.01 µg/mL (≈ 0.0298 µM); in the data set with HIV-1/103-Asn, 0.5 µg/mL (≈ 1.49 µM); with HIV-1/Lys-138, 0.15 µg/mL (≈ 0.447 µM). In the data set on HIV-1/100-Ile, the 50% effective concentration (EC50) was 0.36 µg/mL (≈ 1.07 µM). For the same compound, the CC50 in the data set “in vitro” turned out to be 6 µg/mL (≈ 17.9 µM).

With `Cc1sccc1C(=S)Nc1ccc(Cl)c(OCC2CCCC2)c1` [Compound 28], the concentration for a half-maximal effect (EC50) was 0.5 µg/mL (≈ 1.37 µM) in the data set on HIV-1/181-Cys; 0.23 µg/mL (≈ 0.628 µM) with HIV-1/106-Ala; more than 2 µg/mL in the data set on HIV-1/188-Leu; 0.029 µg/mL (≈ 0.0792 µM) in the data set on HIV-1(IIIB); 0.33 µg/mL (≈ 0.902 µM) with HIV-1/103-Asn; 0.11 µg/mL (≈ 0.301 µM) in the data set on HIV-1/Lys-138. Moreover, the EC50 with HIV-1/100-Ile amounted to 0.22 µg/mL (≈ 0.601 µM). The compound also returned a CC50 in “in vitro” of 4.3 µg/mL (≈ 11.8 µM).

Regarding `Cc1sccc1C(=S)Nc1ccc(Cl)c(OCC(C)(C)C)c1` [Compound 29], the EC50 is 0.55 µg/mL (≈ 1.55 µM) with HIV-1/181-Cys; 0.5 µg/mL (≈ 1.41 µM) with HIV-1/106-Ala; more than 2 µg/mL in the data set with HIV-1/188-Leu; 0.14 µg/mL (≈ 0.396 µM) in the data set with HIV-1(IIIB); 0.43 µg/mL (≈ 1.21 µM) in the data set with HIV-1/103-Asn; 0.05 µg/mL (≈ 0.141 µM) with HIV-1/Lys-138. Further, the EC50 in the data set on HIV-1/100-Ile is 0.5 µg/mL (≈ 1.41 µM). In “in vitro”, this compound registered a CC50 of 6.2 µg/mL (≈ 17.5 µM).

With `CC(C)=CCOc1cc(NC(=O)c2ccoc2C)ccc1Cl` [Compound 30], the EC50 is 0.65 µg/mL (≈ 2.03 µM) in the data set with HIV-1/181-Cys; 0.34 µg/mL (≈ 1.06 µM) in the data set with HIV-1/106-Ala; more than 2 µg/mL in the data set with HIV-1/188-Leu; 0.015 µg/mL (≈ 0.0469 µM) in the data set with HIV-1(IIIB); 1.67 µg/mL (≈ 5.22 µM) with HIV-1/103-Asn; 0.23 µg/mL (≈ 0.719 µM) in the data set with HIV-1/Lys-138. Also, the EC50 in the data set on HIV-1/100-Ile is 1.27 µg/mL (≈ 3.97 µM). Further, the CC50 in the data set “in vitro” was more than 100 µg/mL.

For the compound `Cc1sccc1C(=O)Nc1ccc(Cl)c(C(=O)OC(C)C)c1` [Compound 31], the EC50 in the data set on HIV-1/181-Cys was 0.73 µg/mL (≈ 2.16 µM); in the data set with HIV-1/106-Ala it was 0.6 µg/mL (≈ 1.78 µM); in the data set on HIV-1/188-Leu, more than 2 µg/mL; in the data set on HIV-1(IIIB), 0.09 µg/mL (≈ 0.266 µM); with HIV-1/103-Asn, not below 2 µg/mL; in the data set with HIV-1/Lys-138, 0.93 µg/mL (≈ 2.75 µM). Also, the EC50 in the data set with HIV-1/100-Ile is not below 2 µg/mL. Also, the 50% cytotoxic concentration (CC50) in “in vitro” amounted to 5.5 µg/mL (≈ 16.3 µM).

On to `Cc1sccc1C(=O)Nc1ccc(Cl)c(C(=O)OC(C(C)C)C(C)C)c1` [Compound 32], for which the concentration for a half-maximal effect (EC50) with HIV-1/181-Cys was 0.95 µg/mL (≈ 2.41 µM); in the data set on HIV-1/106-Ala it was not below 2 µg/mL; in the data set on HIV-1/188-Leu, more than 2 µg/mL; in the data set with HIV-1(IIIB), 0.16 µg/mL (≈ 0.406 µM); in the data set with HIV-1/103-Asn, not below 2 µg/mL; with HIV-1/Lys-138, not below 2 µg/mL. Moreover, in the data set on HIV-1/100-Ile, the concentration giving a half-maximal response (EC50) is not below 2 µg/mL. In the data set “in vitro”, this compound displayed a CC50 of 4.1 µg/mL (≈ 10.4 µM).

Regarding `Cc1sccc1C(=O)Nc1ccc(Cl)c(OCCC(C)C)c1` [Compound 33], the EC50 is 1.07 µg/mL (≈ 3.17 µM) in the data set with HIV-1/181-Cys; 0.65 µg/mL (≈ 1.92 µM) in the data set on HIV-1/106-Ala; more than 2 µg/mL in the data set on HIV-1/188-Leu; 0.063 µg/mL (≈ 0.186 µM) in the data set with HIV-1(IIIB); 1 µg/mL (≈ 2.96 µM) in the data set with HIV-1/103-Asn; 0.62 µg/mL (≈ 1.84 µM) in the data set on HIV-1/Lys-138. Also, the EC50 in the data set on HIV-1/100-Ile is 0.95 µg/mL (≈ 2.81 µM). The compound also had a 50% cytotoxic concentration (CC50) in the data set “in vitro” of 7 µg/mL (≈ 20.7 µM).

`CC=CCSc1cc(NC(=O)c2ccsc2C)ccc1Cl` [Compound 34]: the half-maximal effective concentration (EC50) was 1.2 µg/mL (≈ 3.55 µM) in the data set on HIV-1/181-Cys; 0.28 µg/mL (≈ 0.829 µM) in the data set with HIV-1/106-Ala; more than 2 µg/mL with HIV-1/188-Leu; 0.08 µg/mL (≈ 0.237 µM) in the data set with HIV-1(IIIB); 0.8 µg/mL (≈ 2.37 µM) in the data set on HIV-1/103-Asn; 0.5 µg/mL (≈ 1.48 µM) in the data set on HIV-1/Lys-138. Besides, the concentration for a half-maximal effect (EC50) with HIV-1/100-Ile is 0.65 µg/mL (≈ 1.92 µM). Moreover, the 50% cytotoxic concentration (CC50) in “in vitro” was found to be 4.8 µg/mL (≈ 14.2 µM).
